The source of these data is patent publication US11142515B2, “Pyrazolyl-ureas as kinase inhibitors” (RESPIVERT LIMITED, priority 2014, dated 2021).

The target of one test is T1, p38MAPKγ (MAPK12) (Homo sapiens, UniProt P53778).
T1 construct: purchased Life Technologies
T1 sequence (P53778 1-367): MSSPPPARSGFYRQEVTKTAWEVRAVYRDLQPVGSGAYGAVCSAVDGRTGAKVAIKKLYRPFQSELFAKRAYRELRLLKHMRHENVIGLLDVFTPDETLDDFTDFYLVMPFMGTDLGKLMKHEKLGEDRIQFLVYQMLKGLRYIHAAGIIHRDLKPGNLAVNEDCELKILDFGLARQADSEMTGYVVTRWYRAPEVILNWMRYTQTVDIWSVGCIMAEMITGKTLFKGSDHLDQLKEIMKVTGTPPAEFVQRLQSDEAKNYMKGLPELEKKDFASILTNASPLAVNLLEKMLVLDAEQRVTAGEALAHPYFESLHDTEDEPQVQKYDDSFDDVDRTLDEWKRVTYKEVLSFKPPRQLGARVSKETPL
Briefly: p38 MAPKγ enzyme inhibition (Z-LYTE FRET). The note with it: Table 2B, unit inferred; read-out: p38 MAPKγ (Enzyme Profile). The test is classed as biochemical. The procedure, abridged: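 Z-LYTE read-out: after 1 h protease development, only non-phosphorylated peptide is cleaved, and the donor/acceptor (coumarin/fluorescein) ratio reports phosphorylation. Beforehand, enzyme and compound (stock concentrations 0.0012–40 μg/mL) were preincubated 2 h at RT, then the kinase reaction ran 1 h at RT with peptide and ATP (8 μM and 400 μM stocks).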

The target of test [1] is T2, p38 MAPKα isoform (MAPK14) (Homo sapiens, UniProt Q16539).
T2 construct: purchased Life Technologies
T2 sequence (Q16539 whole entry, canonical isoform): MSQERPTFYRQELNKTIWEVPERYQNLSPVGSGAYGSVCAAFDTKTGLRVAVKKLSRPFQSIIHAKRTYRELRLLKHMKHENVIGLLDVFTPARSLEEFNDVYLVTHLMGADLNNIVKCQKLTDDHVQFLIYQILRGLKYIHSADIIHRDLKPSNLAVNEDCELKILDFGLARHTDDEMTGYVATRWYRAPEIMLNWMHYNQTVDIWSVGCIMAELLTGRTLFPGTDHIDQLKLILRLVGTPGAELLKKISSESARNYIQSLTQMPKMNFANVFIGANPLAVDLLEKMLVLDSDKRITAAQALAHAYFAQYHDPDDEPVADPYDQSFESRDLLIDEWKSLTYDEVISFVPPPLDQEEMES
Briefly: p38 MAPKα enzyme inhibition (Z-LYTE FRET). The test is classed as biochemical. The note with it: Table 2B, unit inferred; read-out: p38 MAPKα (Enzyme Profile). The procedure, abridged:
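Recombinant human MAPK14 (40 ng/mL stock) was preincubated 2 h at RT with compound (stock dilutions 0.0012-40 μg/mL). The Z-LYTE FRET read-out used a MAPKAP-K2-derived peptide, and protease development for 1 h cleaved only non-phosphorylated peptide. Phosphorylation was calculated from the coumarin/fluorescein emission ratio.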

As to `COCCNC(=O)Cc1cncc(Nc2cc(COc3ccc(NC(=O)Nc4cc(C(C)(C)C)nn4-c4ccc(C)cc4)c4ccccc34)ccn2)n1` [Example 209, 2-(6-((4-(((4-(3-(3-(tert-butyl)-1-(p-tolyl)-1H-pyrazol-5-yl)ureido)naphthalen-1-yl)oxy)methyl)pyridin-2-yl)amino)pyrazin-2-yl)-N-(2-methoxyethyl)acetamide], the figures for the IC50 (on p38MAPKγ (MAPK12); in test [1]) were 54 nM and 6.5 nM, respectively.

Take `CCc1cncc(Nc2cc(COc3ccc(NC(=O)Nc4cc(C(C)(C)C)nn4-c4ccc(COC)cc4)c4ccccc34)ccn2)n1` [Example 210, 1-(3-(tert-butyl)-1-(4-(methoxymethyl)phenyl)-1H-pyrazol-5-yl)-3-(4-((2-((6-ethylpyrazin-2-yl)amino)pyridin-4-yl)methoxy)naphthalen-1-yl)urea]: the IC50 at p38MAPKγ (MAPK12) was found to be 509 nM; in test [1], 28 nM.

Regarding `CCc1cncc(Nc2cc(COc3ccc(NC(=O)Nc4cc(C(C)(C)C)nn4-c4cc(F)cc(OC)c4)c4ccccc34)ccn2)n1` [Example 211, 1-(3-(tert-butyl)-1-(3-fluoro-5-methoxyphenyl)-1H-pyrazol-5-yl)-3-(4-((2-((6-ethylpyrazin-2-yl)amino)pyridin-4-yl)methoxy)naphthalen-1-yl)urea], the IC50 was determined as 582 nM at p38MAPKγ (MAPK12) and 60 nM in test [1].

As to `CCc1cncc(Nc2cc(COc3ccc(NC(=O)Nc4cc(C(C)(C)C)nn4-c4cc(C)cc(C)c4)c4ccccc34)ccn2)n1` [Example 212, 1-(3-(tert-butyl)-1-(3,5-dimethylphenyl)-1H-pyrazol-5-yl)-3-(4-((2-((6-ethyl-pyrazin-2-yl)amino)pyridin-4-yl)methoxy)naphthalen-1-yl)urea], the IC50 is > 15600 nM on p38MAPKγ (MAPK12) and 89 nM in test [1].

`CCc1cncc(Nc2cc(COc3ccc(NC(=O)Nc4cc(C(C)(C)C)nn4-c4ccc(F)cc4)c4ccccc34)ccn2)n1` [Example 213, 1-(3-(tert-butyl)-1-(4-fluoro-phenyl)-1H-pyrazol-5-yl)-3-(4-((2-((6-ethylpyrazin-2-yl)amino)pyridin-4-yl)methoxy)naphthalen-1-yl)urea]: the IC50 at p38MAPKγ (MAPK12) amounted to 735 nM; in test [1] it was 36 nM.

Regarding `Cc1ccc(-n2nc(C(C)(C)C)cc2NC(=O)Nc2ccc(OCc3ccnc(Nc4cnc(C(=O)N5C[C@@H](C)O[C@@H](C)C5)cn4)c3)c3ccccc23)cc1` [Example 214, 1-(3-(tert-butyl)-1-(p-tolyl)-1H-pyrazol-5-yl)-3-(4-((2-((5-((2S,6R)-2,6-dimethyl-morpholine-4-carbonyl)pyrazin-2-yl)amino)pyridin-4-yl)methoxy)naphthalen-1-yl)urea], the IC50 at p38MAPKγ (MAPK12) came out at 1930 nM; in test [1], 31 nM.

As for `CC(C)(C)c1cc(NC(=O)Nc2ccc(OCc3ccnc(Nc4cnc(C(=O)N5CCCC5)cn4)c3)c3ccccc23)n(-c2ccc(F)cc2)n1` [Example 215, 1-(3-(tert-butyl)-1-(4-fluoro-phenyl)-1H-pyrazol-5-yl)-3-(4-((2-((5-(pyrrolidine-1-carbonyl)pyrazin-2-yl)amino)pyridin-4-yl)methoxy)naphthalen-1-yl)urea], the IC50 on p38MAPKγ (MAPK12) was > 14300 nM; in test [1] it was 15 nM.

Regarding `COc1cccc(-n2nc(C(C)(C)C)cc2NC(=O)Nc2ccc(OCc3ccnc(Nc4cnc(C(=O)N5CCCC5)cn4)c3)c3ccccc23)c1` [Example 216, 1-(3-(tert-butyl)-1-(3-methoxyphenyl)-1H-pyrazol-5-yl)-3-(4-((2-((5-(pyrrolidine-1-carbonyl)pyrazin-2-yl)amino)pyridin-4-yl)methoxy)naphthalen-1-yl)urea], the IC50 at p38MAPKγ (MAPK12) was found to be 401 nM; in test [1], 15 nM.

Regarding `COCc1ccc(-n2nc(C(C)(C)C)cc2NC(=O)Nc2ccc(OCc3ccnc(Nc4cnc(C(=O)N5CCCC5)cn4)c3)c3ccccc23)cc1` [Example 217, 1-(3-(tert-butyl)-1-(4-(methoxymethyl)phenyl)-1H-pyrazol-5-yl)-3-(4-((2-((5-(pyrrolidine-1-carbonyl)pyrazin-2-yl)amino)pyridin-4-yl)methoxy)naphthalen-1-yl)urea], the IC50 is 424 nM at p38MAPKγ (MAPK12) and 17 nM in test [1].

With `Cc1cc(C)cc(-n2nc(C(C)(C)C)cc2NC(=O)Nc2ccc(OCc3ccnc(Nc4cnc(C(=O)N5CCCC5)cn4)c3)c3ccccc23)c1` [Example 218, 1-(3-(tert-butyl)-1-(3,5-dimethylphenyl)-1H-pyrazol-5-yl)-3-(4-((2-((5-(pyrrolidine-1-carbonyl)pyrazin-2-yl)amino)pyridin-4-yl)methoxy)naphthalen-1-yl)urea], the IC50 at p38MAPKγ (MAPK12) was > 14100 nM; in test [1], 28 nM.

Turning to `COc1ccc(-n2nc(C(C)(C)C)cc2NC(=O)Nc2ccc(OCc3ccnc(Nc4cnc(C(=O)N5CCCC5)cn4)c3)c3ccccc23)cn1` [Example 219, 1-(3-(tert-butyl)-1-(6-methoxypyridin-3-yl)-1H-pyrazol-5-yl)-3-(4-((2-((5-(pyrrolidine-1-carbonyl)pyrazin-2-yl)amino)pyridin-4-yl)methoxy)naphthalen-1-yl)urea], the IC50 was > 14000 nM on p38MAPKγ (MAPK12) and 18 nM in test [1].

`COc1cc(F)cc(-n2nc(C(C)(C)C)cc2NC(=O)Nc2ccc(OCc3ccnc(Nc4cnccn4)c3)c3ccccc23)c1` [Example 220, 1-(3-(tert-butyl)-1-(3-fluoro-5-methoxyphenyl)-1H-pyrazol-5-yl)-3-(4-((2-(pyrazin-2-ylamino)pyridin-4-yl)methoxy)naphthalen-1-yl)urea]: the figures for the IC50 (on p38MAPKγ (MAPK12); in test [1]) were 164 nM and 31 nM, respectively.

As to `CCc1cncc(Nc2cc(COc3ccc(NC(=O)Nc4cc(C(C)(C)C)nn4-c4cc(C)cc(OC)c4)c4ccccc34)ccn2)n1` [Example 221, 1-(3-(tert-butyl)-1-(3-methoxy-5-methylphenyl)-1H-pyrazol-5-yl)-3-(4-((2-((6-ethylpyrazin-2-yl)amino)pyridin-4-yl)methoxy)naphthalen-1-yl)urea], the IC50 at p38MAPKγ (MAPK12) was 1270 nM; in test [1], 81 nM.

For the compound `CCc1cncc(Nc2cc(COc3ccc(NC(=O)Nc4cc(C(C)(C)C)nn4-c4cccc(COC)c4)c4ccccc34)ccn2)n1` [Example 222, 1-(3-(tert-butyl)-1-(3-(methoxymethyl)phenyl)-1H-pyrazol-5-yl)-3-(4-((2-((6-ethylpyrazin-2-yl)amino)pyridin-4-yl)methoxy)naphthalen-1-yl)urea], the IC50 came out at 175 nM at p38MAPKγ (MAPK12) and 23 nM in test [1].

As for `Cc1ccc(-n2nc(C(C)(C)C)cc2NC(=O)Nc2ccc(OCc3ccnc(Nc4cnc(C(=O)N(C)CCCO)cn4)c3)c3ccccc23)cc1` [Example 223, 5-((4-(((4-(3-(3-(tert-butyl)-1-(p-tolyl)-1H-pyrazol-5-yl)ureido)naphthalen-1-yl)oxy)methyl)pyridin-2-yl)amino)-N-(3-hydroxypropyl)-N-methylpyrazine-2-carboxamide], the IC50 at p38MAPKγ (MAPK12) turned out to be 103 nM; in test [1], 11 nM.

Consider `COC1CN(C(=O)c2cnc(Nc3cc(COc4ccc(NC(=O)Nc5cc(C(C)(C)C)nn5-c5cccc(C)c5)c5ccccc45)ccn3)cn2)C1` [Example 224, 1-(3-(tert-butyl)-1-(m-tolyl)-1H-pyrazol-5-yl)-3-(4-((2-((5-(3-methoxyazetidine-1-carbonyl)pyrazin-2-yl)amino)pyridin-4-yl)methoxy)naphthalen-1-yl)urea], for which the IC50 is > 14000 nM at p38MAPKγ (MAPK12) and 54 nM in test [1].

As for `COCC1CN(C(=O)c2cnc(Nc3cc(COc4ccc(NC(=O)Nc5cc(C(C)(C)C)nn5-c5ccc(C)cc5)c5ccccc45)ccn3)cn2)C1` [Example 225, 1-(3-(tert-butyl)-1-(p-tolyl)-1H-pyrazol-5-yl)-3-(4-((2-((5-(3-(methoxymethyl)azetidine-l-carbonyl)pyrazin-2-yl)amino)pyridin-4-yl)methoxy)naphthalen-1-yl)urea], the results for the IC50 (at p38MAPKγ (MAPK12); in test [1]) were 342 nM and 14 nM, respectively.

Consider `COc1cc(-n2nc(C(C)(C)C)cc2NC(=O)Nc2ccc(OCc3ccnc(Nc4cnc(C(=O)N5CCCC5)cn4)c3)c3ccccc23)ccc1C` [Example 226, 1-(3-(tert-butyl)-1-(3-methoxy-4-methylphenyl)-1H-pyrazol-5-yl)-3-(4-((2-((5-(pyrrolidine-1-carbonyl)pyrazin-2-yl)amino)pyridin-4-yl)methoxy)naphthalen-1-yl)urea], for which the IC50 on p38MAPKγ (MAPK12) is > 13800 nM; in test [1], 35 nM.

Consider `COc1cc(C)cc(-n2nc(C(C)(C)C)cc2NC(=O)Nc2ccc(OCc3ccnc(Nc4cnc(C(=O)N5CCCC5)cn4)c3)c3ccccc23)c1` [Example 227, 1-(3-(tert-butyl)-1-(3-methoxy-5-methylphenyl)-1H-pyrazol-5-yl)-3-(4-((2-((5-(pyrrolidine-1-carbonyl)pyrazin-2-yl)amino)pyridin-4-yl)methoxy)naphthalen-1-yl)urea], for which the IC50 is > 13800 nM at p38MAPKγ (MAPK12) and 43 nM in test [1].
